41 compounds from the Kinase Knowledgebase extract (Sharma et al. 2016) can be followed below.

For orientation: IC50 means the concentration that gives 50% inhibition.

The structures appear in SMILES notation.

The target of the test is PIK3CA (human) (UniProt P42336). Put plainly: Assessment of PIK3CA Kinase Activity.
Chain of PIK3CA (human) (P42336 whole entry, looked up): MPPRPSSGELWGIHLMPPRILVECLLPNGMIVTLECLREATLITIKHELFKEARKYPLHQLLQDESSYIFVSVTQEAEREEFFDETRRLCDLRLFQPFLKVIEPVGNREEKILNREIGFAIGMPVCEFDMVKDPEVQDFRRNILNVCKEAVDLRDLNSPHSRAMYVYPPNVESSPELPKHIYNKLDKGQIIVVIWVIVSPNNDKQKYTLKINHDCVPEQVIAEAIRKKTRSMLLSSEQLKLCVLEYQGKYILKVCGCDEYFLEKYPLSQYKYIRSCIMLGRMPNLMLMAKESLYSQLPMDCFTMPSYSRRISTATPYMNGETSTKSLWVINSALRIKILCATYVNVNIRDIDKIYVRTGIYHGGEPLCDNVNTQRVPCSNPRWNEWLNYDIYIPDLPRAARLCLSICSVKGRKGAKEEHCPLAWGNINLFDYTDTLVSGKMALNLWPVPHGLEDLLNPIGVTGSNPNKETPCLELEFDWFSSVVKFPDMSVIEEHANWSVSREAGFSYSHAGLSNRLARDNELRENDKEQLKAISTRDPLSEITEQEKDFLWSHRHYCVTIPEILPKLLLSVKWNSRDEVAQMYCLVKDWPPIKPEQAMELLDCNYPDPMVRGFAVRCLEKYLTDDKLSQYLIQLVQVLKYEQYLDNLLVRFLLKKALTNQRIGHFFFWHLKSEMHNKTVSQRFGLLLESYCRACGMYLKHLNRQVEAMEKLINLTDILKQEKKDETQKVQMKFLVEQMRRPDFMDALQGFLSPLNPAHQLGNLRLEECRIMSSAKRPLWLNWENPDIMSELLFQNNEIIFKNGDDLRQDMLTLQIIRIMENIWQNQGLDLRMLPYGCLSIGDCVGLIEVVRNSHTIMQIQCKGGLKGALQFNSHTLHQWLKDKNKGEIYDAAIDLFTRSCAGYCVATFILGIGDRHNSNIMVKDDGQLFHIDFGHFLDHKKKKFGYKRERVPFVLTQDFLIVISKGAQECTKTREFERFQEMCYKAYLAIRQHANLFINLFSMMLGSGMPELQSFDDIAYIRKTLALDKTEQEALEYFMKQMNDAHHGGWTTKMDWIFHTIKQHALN
`Cc1ncc(C(C)C)c(N2CCOc3c(C)cc(-c4nnc(N)s4)cc3C2)n1`: the IC50 is not above 100 nM.

In the case of `Cc1cc(-c2cnc3sc(N)nc3c2)cc2c1OCCN(c1nc(CN(C)C)ncc1C(C)C)C2`, the IC50 was not above 100 nM. `C=Cc1c(CC)nc(N)nc1N1CCOc2c(C)cc(-c3cnc4sc(N)nc4c3)cc2C1` showed an IC50 not above 100 nM. `Cc1cc(-c2cnc3sc(N)nc3c2)cc2c1OCCN(c1nc([S+](C)[O-])nc(C)c1C(C)C)C2` (stereo unspecified) registered an IC50 not above 100 nM.

In turn, `CC(=O)Nc1ncc(-c2cc(C)c3c(c2)CN(c2nc(N)nc(C)c2C(C)C)CCO3)s1` returned an IC50 of 100 to 500 nM. On to `Cc1nc2ccc(-c3cc(C)c4c(c3)CN(c3nc(N)nc(C)c3C(C)C)CCO4)cc2[nH]1`, for which the IC50 was not above 100 nM. Consider `Cc1cc(-c2cnc3sc(N)nc3c2)cc2c1OCCN(c1nc(N)nc(C)c1-c1cccc(F)c1)C2`, for which the IC50 was not above 100 nM. `Cc1nc2ccc(-c3cc(C)c4c(c3)CN(c3nc(CN(C)C)nc(C)c3C(C)C)CCO4)cc2[nH]1` registered an IC50 not above 100 nM. In turn, `Cc1cc(-c2cnc(Cl)c(NS(C)(=O)=O)c2)cc2c1OCCN(c1nc(CNCCF)nc(C)c1C(C)C)C2` came in with an IC50 not above 100 nM.

As to `C=Cc1c(C)nc(N)nc1N1CCOc2c(C)cc(-c3cnc4sc(N)nc4c3)cc2C1`, the IC50 is not above 100 nM.

`Cc1cc(-c2cnc3sc(N)nc3c2)cc2c1OCCN(c1nc(C(O)C(F)(F)F)nc(C)c1C(C)C)C2` (stereo unspecified): the IC50 is not above 100 nM. `Cc1cc(-c2ccnc(F)c2)cc2c1OCCN(c1nc(N)nc(C)c1C(C)C)C2` returned an IC50 not above 100 nM. Then `CCc1cnc(CN(C)C)nc1N1CCOc2c(C)cc(-c3cnc4sc(N)nc4c3)cc2C1`, with not above 100 nM; and `Cc1cc(-c2cnc3sc(N)nc3c2)cc2c1OCCN(c1nc(C(F)(F)F)nc(C)c1C(C)C)C2`, with not above 100 nM; and `COCCc1nc(C)c(C(C)C)c(N2CCOc3c(C)cc(-c4cnc5sc(N)nc5c4)cc3C2)n1`, with not above 100 nM.

The compound `Cc1cnc(N)nc1N1CCOc2c(C)cc(-c3nnc(N)s3)cc2C1` returned an IC50 not above 100 nM. Then `Cc1cc(-c2cnc3nc[nH]c3c2)cc2c1OCCN(c1nc(CN(C)CC(F)F)nc(C)c1C(C)C)C2`, with not above 100 nM; and `Cc1cc(-c2cccc(C(N)=O)c2)cc2c1OCCN(c1nc(N)nc(C)c1C(C)C)C2`, with 100 to 500 nM; and `Cc1cc(-c2cnc3nc[nH]c3c2)cc2c1OCCN(c1nc(N)nc(C)c1C(C)C)C2`, with not above 100 nM. For the compound `CNc1ncnc(N2CCOc3c(C)cc(-c4cnc5sc(N)nc5c4)cc3C2)c1[N+](=O)[O-]`, the IC50 is 100 to 500 nM. In the case of `Cc1cc(-c2cnc3sc(N)nc3c2)cc2c1OCCN(c1nc(CNC(C)(C)C)nc(C)c1C(C)C)C2`, the IC50 is not above 100 nM. On to `COCCc1nc(C)c(C(C)C)c(N2CCOc3c(C)cc(-c4cnc(Cl)c(NS(C)(=O)=O)c4)cc3C2)n1`, for which the IC50 is not above 100 nM. `Cc1cc(-c2cccc(O)c2)cc2c1OCCN(c1nc(N)nc(C)c1C(C)C)C2` displayed an IC50 not above 100 nM.

Compound `Cc1cnc(N2CCOc3c(C)cc(-c4cnc5sc(N)nc5c4)cc3C2)nc1N` had an IC50 of 100 to 500 nM.

The compound `COc1ccc(-c2cc(C)c3c(c2)CN(c2nc(N)nc(C)c2C(C)C)CCO3)cc1OC` gave an IC50 not above 100 nM.

The compound `Cc1cc(-c2cnc3sc(N)nc3c2)cc2c1OCCN(c1nc(CN3CCCC3)nc(C)c1C(C)C)C2` displayed an IC50 not above 100 nM.

`Cc1cc(-c2cnc3sc(N)nc3c2)cc2c1OCCN(c1nc(N)ncc1C(C)C)C2` registered an IC50 not above 100 nM. `COc1ncc(-c2cc(C)c3c(c2)CN(c2nc(N)nc(C)c2C(C)C)CCO3)cc1NS(C)(=O)=O` yielded an IC50 not above 100 nM. `COCCc1c(C)nc(N)nc1N1CCOc2c(C)cc(-c3cnc4sc(N)nc4c3)cc2C1` gave an IC50 not above 100 nM. `Cc1cc(-c2cnc3sc(N)nc3c2)cc2c1OCCN(c1nc(CNCCF)nc(C)c1C(C)C)C2` yielded an IC50 not above 100 nM. Then `COCCc1c(C)nc(CN2CCCC2)nc1N1CCOc2c(C)cc(-c3cnc4sc(N)nc4c3)cc2C1`, with not above 100 nM. In turn, `CNc1nc(C)c(C(C)C)c(N2CCOc3c(C)cc(-c4cnc5sc(N)nc5c4)cc3C2)n1` displayed an IC50 not above 100 nM.

In turn, `Cc1cc(-c2nnc(N)s2)cc2c1OCCN(c1nc(N)ncc1C(C)C)C2` gave an IC50 not above 100 nM. Then `Cc1cc(-c2cncc(NS(C)(=O)=O)c2)cc2c1OCCN(c1nc(N)nc(C)c1C(C)C)C2`, with not above 100 nM; and `CCn1cc(-c2cc(C)c3c(c2)CN(c2nc(N)nc(C)c2C(C)C)CCO3)cn1`, with 100 to 500 nM.

Compound `CNC(=O)c1sc(N2CCOc3c(C)cc(-c4cnc(Cl)c(NS(C)(=O)=O)c4)cc3C2)nc1C(C)C` registered an IC50 of 100 to 500 nM. `Cc1cc(-c2cnc3sc(N)nc3c2)cc2c1OCCN(c1nc(CNC3CC3)nc(C)c1C(C)C)C2` returned an IC50 not above 100 nM. Then `Cc1cc(-c2cnc3sc(N)nc3c2)cc2c1OCCN(c1nc(N)nc3c1CC(C)(C)CC3)C2`, with not above 100 nM; and `Cc1cc(-c2cnc3sc(N)nc3c2)cc2c1OCCN(c1ncnc3c1CC[C@H](C)C3)C2`, with not above 100 nM; and `Cc1cc(-c2cnc3sc(N)nc3c2)cc2c1OCCN(c1ncc(C(N)=O)c(N)n1)C2`, with 100 to 500 nM. Take `CCN(Cc1nc(C)c(C(C)C)c(N2CCOc3c(C)cc(-c4nnc(N)s4)cc3C2)n1)CC(F)F`: the IC50 was not above 100 nM.
